Measured values published in patent US20240352016A1, “A CYCLIN-DEPENDENT KINASE INHIBITOR” (TAIZHOU EOC PHARMA CO., LTD., priority 2021, published 2024).
Structures can show the parent of a compound that is named as a salt.

biological target: T1, CDK7/Cyclin H/MAT1 (Homo sapiens, UniProt P50613); assay: CDK kinase activity mobility shift assay (MSA); format: biochemical; settings: The CDK may be CDK7; mobility shift assay, 2 mM ATP, 3 nM CDK/Cyclin, 27° C. for 40 min; read-out: IC50 (CDK inhibition)
T1 construct: made in house; host or cells: insect cell
Method: Human CDKs, cyclins and other partner proteins were expressed in insect cell, purified individually, reconstituted and then purified to homogeneity before being used for kinase activity assay.
Kinase activity of CDKs were determined by mobility shift assay (MSA), in which the formation of a phosphorylated fluorescence-labelled peptide in reaction mixture was monitored through capillary electrophoresis in a microfluidic environment. […] The mixtures were incubated at 27° C. for 40 min before being quenched with 4 μl 80 mM EDTA, then read on a LabChip EZ Reader II (Caliper Life Science). IC50 of compound for CDKs was calculated by Prism (GraphPad) using a four-parameter nonlinear curve fit.

T1 sequence (P50613 whole entry): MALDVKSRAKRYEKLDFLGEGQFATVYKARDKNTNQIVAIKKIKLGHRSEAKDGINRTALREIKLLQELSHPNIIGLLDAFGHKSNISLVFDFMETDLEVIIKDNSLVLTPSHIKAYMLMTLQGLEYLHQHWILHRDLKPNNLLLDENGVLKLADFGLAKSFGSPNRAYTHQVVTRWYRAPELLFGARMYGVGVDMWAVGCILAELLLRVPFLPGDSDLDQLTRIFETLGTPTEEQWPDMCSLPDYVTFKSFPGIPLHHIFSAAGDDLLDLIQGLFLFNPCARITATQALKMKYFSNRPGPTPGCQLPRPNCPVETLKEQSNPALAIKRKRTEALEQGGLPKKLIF
T1 sequence (P51946 whole entry partner): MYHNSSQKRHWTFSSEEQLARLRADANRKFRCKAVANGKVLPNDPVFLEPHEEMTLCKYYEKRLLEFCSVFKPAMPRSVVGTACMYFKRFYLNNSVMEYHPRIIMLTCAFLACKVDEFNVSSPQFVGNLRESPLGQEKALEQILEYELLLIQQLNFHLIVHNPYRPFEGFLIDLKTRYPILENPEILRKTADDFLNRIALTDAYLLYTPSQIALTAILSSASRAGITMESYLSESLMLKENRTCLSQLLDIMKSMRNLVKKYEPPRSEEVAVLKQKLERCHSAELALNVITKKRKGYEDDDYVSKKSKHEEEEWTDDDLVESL
T1 sequence (P51948 whole entry partner): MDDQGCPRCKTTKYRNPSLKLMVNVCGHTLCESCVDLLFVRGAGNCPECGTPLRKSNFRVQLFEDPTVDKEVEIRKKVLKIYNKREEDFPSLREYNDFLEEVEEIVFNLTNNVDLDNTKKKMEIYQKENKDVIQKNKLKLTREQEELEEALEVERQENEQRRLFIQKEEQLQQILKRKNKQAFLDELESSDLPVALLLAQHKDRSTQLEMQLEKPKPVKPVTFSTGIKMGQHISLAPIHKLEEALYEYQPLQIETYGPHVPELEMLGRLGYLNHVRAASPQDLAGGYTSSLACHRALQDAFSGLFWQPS

Compound | IC50 [nM]
CC(C)n1cnc2c(NCc3ccccc3-n3ccc(CO)n3)nc(N3CCC(N)CC3)nc21 [Compound I-1, (1-(2-(((2-(4-aminopiperidin-1-yl)-9-isopropyl-9H-purin-6-yl)amino)methyl)phenyl)-1H-pyrazol-3-yl)methanol] | < 100
CC(C)n1cnc2c(NCc3ccccc3-n3cccn3)nc(N3CCC(C4CCNCC4)CC3)nc21 [Compound I-5, N-(2-(1H-pyrazol-1-yl)benzyl)-2-([4,4′-bipiperidin]-1-yl)-9-isopropyl-9H-purin-6-amine hydrochloride] | 100 to 500
CC(C)n1cnc2c(NCc3ccccc3-n3cccn3)nc(N3CC[C@H](N)C3)nc21 [Compound I-9, (S)—N-(2-(1H-pyrazol-1-yl)benzyl)-2-(3-aminopyrrolidin-1-yl)-9-isopropyl-9H-purin-6-amine] | < 100
CC(C)n1cnc2c(NCc3ccccc3-n3cccn3)nc(N3CCC[C@@H](N)C3)nc21 [Compound I-11, (R)—N-(2-(1H-pyrazol-1-yl)benzyl)-2-(3-aminopiperidin-1-yl)-9-isopropyl-9H-purin-6-amine] | < 100
CC(C)n1cnc2c(NCc3ccccc3-n3cccn3)nc(N[C@H]3CCCNC3)nc21 [Compound I-13, (S)-N6-(2-(1H-pyrazol-1-yl)benzyl)-9-isopropyl-N2-(piperidin-3-yl)-9H-purine-2,6-diamine] | 100 to 500
CC(C)n1cnc2c(NCc3ccccc3-n3cccn3)nc(NCC3(O)CCNCC3)nc21 [Compound I-14, 4-(((6-((2-(1H-pyrazol-1-yl)benzyl)amino)-9-isopropyl-9H-purin-2-yl)amino)methyl)piperidin-4-ol trihydrochloride] | 100 to 500
CC(C)n1cnc2c(NCc3ccccc3-n3cccn3)nc(N3CCC(C(=O)N(C)C)CC3)nc21 [Compound I-15, 1-(6-((2-(1H-pyrazol-1-yl)benzyl)amino)-9-isopropyl-9H-purin-2-yl)-N,N-dimethylpiperidine-4-carboxamide] | > 1000
CC(C)n1cnc2c(NCc3ccccc3-n3ccc(C(C)(C)O)n3)nc(NC3CCNCC3)nc21 [Compound I-17, 2-(1-(2-(((9-isopropyl-2-(piperidin-4-ylamino)-9H-purin-6-yl)amino)methyl)phenyl)-1H-pyrazol-3-yl)propan-2-ol] | < 100

Results, then the molecule that gave them:

IC50 [nM] | Compound
< 100 | CC(C)n1cnc2c(NCc3c(Cl)cccc3-n3ccc(C(C)(C)O)n3)nc(NC3CCNCC3)nc21 [Compound I-18, 2-[1-[3-chloro-2-[[[9-isopropyl-2-(4-piperidylamino)purin-6-yl]amino]methyl]phenyl]pyrazol-3-yl]propan-2-ol]
< 100 | CCN(CC)C1CCN(c2nc(NCc3ccccc3-n3cccn3)c3ncn(C(C)C)c3n2)CC1 [Compound I-20, 2-[4-(diethylamino)-1-piperidyl]-9-isopropyl-N-[(2-pyrazol-1-ylphenyl)methyl]purin-6-amine]
> 1000 | CC(C)n1cnc2c(NCc3ccccc3-n3cccn3)nc(NC(=O)C3CCNCC3)nc21 [Compound I-21, N-(6-((2-(1H-pyrazol-1-yl)benzyl)amino)-9-isopropyl-9H-purin-2-yl)piperidine-4-carboxamide]
< 100 | CC(C)n1cnc2c(NCc3c(F)cccc3-n3cccn3)nc(N3CCC(N)CC3)nc21 [Compound I-24, 2-(4-aminopiperidin-1-yl)-N-(2-fluoro-6-(1H-pyrazol-1-yl)benzyl)-9-isopropyl-9H-purin-6-amine hydrochloride]
< 100 | NC1CCN(c2nc(NCc3ccccc3-n3cccn3)c3ncn(C4CCCC4)c3n2)CC1 [Compound I-25, N-(2-(1H-pyrazol-1-yl)benzyl)-2-(4-aminopiperidin-1-yl)-9-cyclopentyl-9H-purin-6-amine]
< 100 | CC(C)n1cnc2c(NCc3ccccc3-n3cccn3)nc(N3CCC(N(C)C)CC3)nc21 [Compound I-26, N-(2-(1H-pyrazol-1-yl)benzyl)-2-(4-(dimethylamino)piperidin-1-yl)-9-isopropyl-9H-purin-6-amine]
